Measurements: publication PMC10884080, “A progesterone derivative linked to a stable phospholipid activates breast cancer cell response without leaving the cell membrane” (Cellular and Molecular Life Sciences: CMLS, 2024)

Target: T1, progesterone receptor (PR, PRb) (Homo sapiens, UniProt P06401)
T1 construct: gene PGR; wild type PRb expressed in PR-negative U2OS or TYML cells
T1 sequence (P06401 1-933): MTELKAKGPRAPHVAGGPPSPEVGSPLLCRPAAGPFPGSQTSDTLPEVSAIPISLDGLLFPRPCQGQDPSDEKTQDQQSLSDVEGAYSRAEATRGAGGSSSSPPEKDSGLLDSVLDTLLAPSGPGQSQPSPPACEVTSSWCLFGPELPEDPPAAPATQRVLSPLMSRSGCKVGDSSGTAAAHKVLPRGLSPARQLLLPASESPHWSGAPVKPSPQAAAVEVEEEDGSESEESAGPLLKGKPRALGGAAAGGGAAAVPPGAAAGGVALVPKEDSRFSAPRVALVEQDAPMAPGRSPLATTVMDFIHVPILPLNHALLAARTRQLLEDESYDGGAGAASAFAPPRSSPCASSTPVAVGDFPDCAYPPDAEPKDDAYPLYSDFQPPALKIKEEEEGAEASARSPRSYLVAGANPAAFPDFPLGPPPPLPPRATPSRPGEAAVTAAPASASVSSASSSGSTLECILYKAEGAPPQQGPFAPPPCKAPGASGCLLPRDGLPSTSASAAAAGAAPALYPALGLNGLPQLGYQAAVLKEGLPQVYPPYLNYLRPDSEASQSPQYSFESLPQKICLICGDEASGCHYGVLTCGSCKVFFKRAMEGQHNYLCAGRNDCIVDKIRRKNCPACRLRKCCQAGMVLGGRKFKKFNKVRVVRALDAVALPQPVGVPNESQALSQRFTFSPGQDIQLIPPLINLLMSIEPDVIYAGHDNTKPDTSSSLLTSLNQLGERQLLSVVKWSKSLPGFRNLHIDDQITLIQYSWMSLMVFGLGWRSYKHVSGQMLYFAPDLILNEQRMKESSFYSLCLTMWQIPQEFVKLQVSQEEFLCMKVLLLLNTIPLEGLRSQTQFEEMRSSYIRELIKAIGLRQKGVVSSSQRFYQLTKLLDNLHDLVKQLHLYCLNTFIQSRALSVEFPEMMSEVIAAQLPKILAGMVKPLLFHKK
Assay: PR S294 phosphorylation and MMTV-luc/target gene induction by […] P4 in PR-negative cells transfected with wild type PRb
Format: cell-based

CC(=O)[C@H]1CC[C@H]2[C@@H]3CCC4=CC(=O)CC[C@]4(C)[C@H]3CC[C@]12C [P4, progesterone]
PR S294 phosphorylation and MMTV-luc/target gene induction by 10 nM P4 in PR-neg: only the wtPR-expressing cells activated the ERK kinase and led to PR phosphorylation
